# From article PMC12102759 (Protein Science : A Publication of the Protein Society, 2025)
# Like-named read-outs stand apart in the source and are kept apart here.
# System: G3BP1 NFT2
# Assay type: binding, human
# Conditions: library DMS-CoV, bait G3BP1 NFT2, prey N, listed as aa = residue placed at this position, column sums to 1
sequence,measurement,setting,value
RNAPRITFGGPSDSTG G16M (RNAPRITFGGPSDSTM),"DMS PSSM value, G (position 16)",peptide RNAPRITFGGPSDSTG,0
APRITFGGPSDSTGSN A1W (WPRITFGGPSDSTGSN),"DMS PSSM value, A (position 1)",peptide APRITFGGPSDSTGSN,0.0009046
RNAPRITFGGPSDSTG G9D (RNAPRITFDGPSDSTG),"DMS PSSM value, G (position 9)",peptide RNAPRITFGGPSDSTG,1
RNAPRITFGGPSDSTG G16W (RNAPRITFGGPSDSTW),"DMS PSSM value, G (position 16)",peptide RNAPRITFGGPSDSTG,0
APRITFGGPSDSTGSN T13A (APRITFGGPSDSAGSN),"DMS PSSM value, T (position 13)",peptide APRITFGGPSDSTGSN,0.02642
RNAPRITFGGPSDSTG D13Q (RNAPRITFGGPSQSTG),"DMS PSSM value, D (position 13)",peptide RNAPRITFGGPSDSTG,0
APRITFGGPSDSTGSN A1V (VPRITFGGPSDSTGSN),"DMS PSSM value, A (position 1)",peptide APRITFGGPSDSTGSN,0.004383
RNAPRITFGGPSDSTG G9P (RNAPRITFPGPSDSTG),"DMS PSSM value, G (position 9)",peptide RNAPRITFGGPSDSTG,0
RNAPRITFGGPSDSTG R5K (RNAPKITFGGPSDSTG),"DMS PSSM value, R (position 5)",peptide RNAPRITFGGPSDSTG,0.0001577
RNAPRITFGGPSDSTG S14F (RNAPRITFGGPSDFTG),"DMS PSSM value, S (position 14)",peptide RNAPRITFGGPSDSTG,0
RNAPRITFGGPSDSTG S12F (RNAPRITFGGPFDSTG),"DMS PSSM value, S (position 12)",peptide RNAPRITFGGPSDSTG,0
APRITFGGPSDSTGSN S12H (APRITFGGPSDHTGSN),"DMS PSSM value, S (position 12)",peptide APRITFGGPSDSTGSN,0.0346
RNAPRITFGGPSDSTG T15S (RNAPRITFGGPSDSSG),"DMS PSSM value, T (position 15)",peptide RNAPRITFGGPSDSTG,0
RNAPRITFGGPSDSTG P4Q (RNAQRITFGGPSDSTG),"DMS PSSM value, P (position 4)",peptide RNAPRITFGGPSDSTG,0.08846
APRITFGGPSDSTGSN A1K (KPRITFGGPSDSTGSN),"DMS PSSM value, A (position 1)",peptide APRITFGGPSDSTGSN,0
RNAPRITFGGPSDSTG P11K (RNAPRITFGGKSDSTG),"DMS PSSM value, P (position 11)",peptide RNAPRITFGGPSDSTG,0
APRITFGGPSDSTGSN P2Y (AYRITFGGPSDSTGSN),"DMS PSSM value, P (position 2)",peptide APRITFGGPSDSTGSN,0
APRITFGGPSDSTGSN T13N (APRITFGGPSDSNGSN),"DMS PSSM value, T (position 13)",peptide APRITFGGPSDSTGSN,0.01901
APRITFGGPSDSTGSN G7Q (APRITFQGPSDSTGSN),"DMS PSSM value, G (position 7)",peptide APRITFGGPSDSTGSN,0.005359
APRITFGGPSDSTGSN I4A (APRATFGGPSDSTGSN),"DMS PSSM value, I (position 4)",peptide APRITFGGPSDSTGSN,0
APRITFGGPSDSTGSN F6Q (APRITQGGPSDSTGSN),"DMS PSSM value, F (position 6)",peptide APRITFGGPSDSTGSN,0
RNAPRITFGGPSDSTG R5D (RNAPDITFGGPSDSTG),"DMS PSSM value, R (position 5)",peptide RNAPRITFGGPSDSTG,0.0001605
RNAPRITFGGPSDSTG T15Y (RNAPRITFGGPSDSYG),"DMS PSSM value, T (position 15)",peptide RNAPRITFGGPSDSTG,0
APRITFGGPSDSTGSN T5W (APRIWFGGPSDSTGSN),"DMS PSSM value, T (position 5)",peptide APRITFGGPSDSTGSN,0
RNAPRITFGGPSDSTG S12E (RNAPRITFGGPEDSTG),"DMS PSSM value, S (position 12)",peptide RNAPRITFGGPSDSTG,0.6084
RNAPRITFGGPSDSTG P11N (RNAPRITFGGNSDSTG),"DMS PSSM value, P (position 11)",peptide RNAPRITFGGPSDSTG,0
RNAPRITFGGPSDSTG T7I (RNAPRIIFGGPSDSTG),"DMS PSSM value, T (position 7)",peptide RNAPRITFGGPSDSTG,0
APRITFGGPSDSTGSN G7D (APRITFDGPSDSTGSN),"DMS PSSM value, G (position 7)",peptide APRITFGGPSDSTGSN,0
APRITFGGPSDSTGSN G14H (APRITFGGPSDSTHSN),"DMS PSSM value, G (position 14)",peptide APRITFGGPSDSTGSN,0.009284
APRITFGGPSDSTGSN P2E (AERITFGGPSDSTGSN),"DMS PSSM value, P (position 2)",peptide APRITFGGPSDSTGSN,0.7321
RNAPRITFGGPSDSTG T15M (RNAPRITFGGPSDSMG),"DMS PSSM value, T (position 15)",peptide RNAPRITFGGPSDSTG,0
RNAPRITFGGPSDSTG T7W (RNAPRIWFGGPSDSTG),"DMS PSSM value, T (position 7)",peptide RNAPRITFGGPSDSTG,0
APRITFGGPSDSTGSN F6T (APRITTGGPSDSTGSN),"DMS PSSM value, F (position 6)",peptide APRITFGGPSDSTGSN,0
APRITFGGPSDSTGSN R3P (APPITFGGPSDSTGSN),"DMS PSSM value, R (position 3)",peptide APRITFGGPSDSTGSN,0.2686
APRITFGGPSDSTGSN G8F (APRITFGFPSDSTGSN),"DMS PSSM value, G (position 8)",peptide APRITFGGPSDSTGSN,0
APRITFGGPSDSTGSN P9R (APRITFGGRSDSTGSN),"DMS PSSM value, P (position 9)",peptide APRITFGGPSDSTGSN,0
RNAPRITFGGPSDSTG S12M (RNAPRITFGGPMDSTG),"DMS PSSM value, S (position 12)",peptide RNAPRITFGGPSDSTG,0
RNAPRITFGGPSDSTG P4K (RNAKRITFGGPSDSTG),"DMS PSSM value, P (position 4)",peptide RNAPRITFGGPSDSTG,0
RNAPRITFGGPSDSTG D13L (RNAPRITFGGPSLSTG),"DMS PSSM value, D (position 13)",peptide RNAPRITFGGPSDSTG,0
APRITFGGPSDSTGSN D11W (APRITFGGPSWSTGSN),"DMS PSSM value, D (position 11)",peptide APRITFGGPSDSTGSN,0.001161
APRITFGGPSDSTGSN A1D (DPRITFGGPSDSTGSN),"DMS PSSM value, A (position 1)",peptide APRITFGGPSDSTGSN,0.5313
RNAPRITFGGPSDSTG G16Q (RNAPRITFGGPSDSTQ),"DMS PSSM value, G (position 16)",peptide RNAPRITFGGPSDSTG,0
RNAPRITFGGPSDSTG R5Q (RNAPQITFGGPSDSTG),"DMS PSSM value, R (position 5)",peptide RNAPRITFGGPSDSTG,0.0005824
APRITFGGPSDSTGSN D11L (APRITFGGPSLSTGSN),"DMS PSSM value, D (position 11)",peptide APRITFGGPSDSTGSN,0.001888
APRITFGGPSDSTGSN G14N (APRITFGGPSDSTNSN),"DMS PSSM value, G (position 14)",peptide APRITFGGPSDSTGSN,0.000305
APRITFGGPSDSTGSN S10N (APRITFGGPNDSTGSN),"DMS PSSM value, S (position 10)",peptide APRITFGGPSDSTGSN,0
RNAPRITFGGPSDSTG D13S (RNAPRITFGGPSSSTG),"DMS PSSM value, D (position 13)",peptide RNAPRITFGGPSDSTG,0
RNAPRITFGGPSDSTG G16D (RNAPRITFGGPSDSTD),"DMS PSSM value, G (position 16)",peptide RNAPRITFGGPSDSTG,0
APRITFGGPSDSTGSN G14P (APRITFGGPSDSTPSN),"DMS PSSM value, G (position 14)",peptide APRITFGGPSDSTGSN,0.002211
RNAPRITFGGPSDSTG R5L (RNAPLITFGGPSDSTG),"DMS PSSM value, R (position 5)",peptide RNAPRITFGGPSDSTG,0.01198
RNAPRITFGGPSDSTG P11Q (RNAPRITFGGQSDSTG),"DMS PSSM value, P (position 11)",peptide RNAPRITFGGPSDSTG,0
